This note sets out measurements from US20250352615A1, “COMPOSITIONS AND METHODS FOR THE MODULATION OF PIEZO1 AND TRPV4” (Duke University, priority 2021, published 2025).

Structures are written as SMILES.

In assay [1] the target is T1, TRPV4 (Mus musculus, UniProt Q9EPK8).
T1 construct: endogenous in cells; host or cells: freshly isolated mouse pancreatic acini (C57BL/6J WT)
As to the kind of experiment: Calcium imaging of TRPV4-mediated [Ca2+]i in pancreatic acini (agonists, shear stress, Yoda1 sustained phase). The format is cell-based. Here is the method:
(§1) Mouse pancreatic acini were isolated using a standard collagenase digestion protocol. Isolated acini were plated on a thin-layered, Matrigel-coated, glass-bottom, culture plate (MatTek, P35G-0-14-C). Freshly isolated acini were used in each experiment.
Parallel-plate fluid flow chambers (μ-Slide I 0.4 Luer, and μ-Slide I 0.2 Luer from Ibidi GmbH) were used to measure the shear stress-induced changes in intracellular calcium, mitochondrial depolarization, and trypsin activation. The constant flow rate with shear stress (T) was determined as follows: τ=η×[…] φ for μ-Slide I 0.4 Luer and τ=η×330.4 φ for μ-Slide I 0.2 Luer, where η=viscosity of the medium and φ=flow rate (according to the manufacturer's instructions, Ibidi).
(§2) Calcium imaging in pancreatic acini was performed as previously described. The chemicals used in calcium imaging experiments included the following: Yoda1 (Tocris; 5586), GsMTx4 (Abcam; ab141871), 5′,6′-EET (Santa Cruz Biotechnology; sc-221066), AA (Millipore Sigma; A3611), HC067047 (Tocris; 4100), GSK1016790A (Millipore Sigma; G0798), RN1734 (Tocris; 3746), AACOCF3 (Tocris; 1462), YM26734 (Tocris; 2522), GF109203X (Tocris; 0741), and CCK8 (Sigma-Aldrich).

Assay [2] addresses T1, TRPV4. As to the kind of experiment: Calcium imaging of TRPV4-mediated [Ca2+]i in mouse PSCs. It counts as cell-based. As for the experimental part:
(§3) Mouse and human PSCs were isolated using collagenase digestion. Modified Krebs Henseleit Buffer (KHB) solution (100 mL) was prepared as previously described by Romac et al., Nat. Commun. 9(1):1715 (2018). Pancreatic tissue was digested with 2 mg of collagenase NB 8 (SERVA, catalog 17456) dissolved in 10 mL of modified KHB solution containing 1 mg soybean trypsin inhibitor (SBTI 1-S; Millipore Sigma, catalog T9003) and 20 mg BSA (Thermo Fisher Scientific; BP1600-100). Digestion solution (5 mL) was used to inflate the pancreas. Pancreas with 5 mL of digestion solution was incubated in a shaking water bath for 10 minutes at 37° C. The solution was then discarded. The pancreas tissue was cut into small pieces and digested with fresh 5 mL digestion buffer. Tissue was incubated in a shaking water bath for 40 minutes at 37° C. The cells were then separated from tissue by pipetting up-down with a 10 mL pipette and passed sequentially through a 70 μm and a 40 μm cell strainer. The filtrate was centrifuged at 150×g for 3 minutes at room temperature. The cells were washed with 10 mL Leibovitz's media (Thermo Fisher Scientific, catalog 11415-064), passed through a 20 μm filter, and centrifuged at 80×g for 3 minutes at room temperature. The supernate was removed, and isolated stellate cells were plated on a thin-layered Matrigel-coated glass bottom culture plate (MatTek, P35G-0-14-C). Before plating the cells, Matrigel solution (Corning, catalog 354234) at a ratio of 1.5:100 DMEM/F12 (Thermo Fisher Scientific, catalog 11330-032) was poured onto the culture plate and incubated for 2 hr at 37° C. to form a thin layer of Matrigel coating. Matrigel mixture was removed, and the plate was washed with PBS before cells were plated. Cell culture media, DMEM/F12 with 5% FBS was used for mouse stellate cells. Fresh, human pancreatic tissue was digested with collagenase as described above with modifications. […] The cell viability following Yoda1 treatment was analyzed using the Live/Dead cell imaging kit (Thermo Fisher Scientific, catalog R37601). […]

Assay [3] deals with T2, TRPV4 (Homo sapiens, UniProt Q9HBA0).
T2 construct: Fresh, human pancreatic tissue was digested with collagenase as described above with modifications; endogenous in cells; host or cells: primary human pancreatic stellate cells from fresh human pancreatic tissue
T2 sequence (Q9HBA0 whole entry): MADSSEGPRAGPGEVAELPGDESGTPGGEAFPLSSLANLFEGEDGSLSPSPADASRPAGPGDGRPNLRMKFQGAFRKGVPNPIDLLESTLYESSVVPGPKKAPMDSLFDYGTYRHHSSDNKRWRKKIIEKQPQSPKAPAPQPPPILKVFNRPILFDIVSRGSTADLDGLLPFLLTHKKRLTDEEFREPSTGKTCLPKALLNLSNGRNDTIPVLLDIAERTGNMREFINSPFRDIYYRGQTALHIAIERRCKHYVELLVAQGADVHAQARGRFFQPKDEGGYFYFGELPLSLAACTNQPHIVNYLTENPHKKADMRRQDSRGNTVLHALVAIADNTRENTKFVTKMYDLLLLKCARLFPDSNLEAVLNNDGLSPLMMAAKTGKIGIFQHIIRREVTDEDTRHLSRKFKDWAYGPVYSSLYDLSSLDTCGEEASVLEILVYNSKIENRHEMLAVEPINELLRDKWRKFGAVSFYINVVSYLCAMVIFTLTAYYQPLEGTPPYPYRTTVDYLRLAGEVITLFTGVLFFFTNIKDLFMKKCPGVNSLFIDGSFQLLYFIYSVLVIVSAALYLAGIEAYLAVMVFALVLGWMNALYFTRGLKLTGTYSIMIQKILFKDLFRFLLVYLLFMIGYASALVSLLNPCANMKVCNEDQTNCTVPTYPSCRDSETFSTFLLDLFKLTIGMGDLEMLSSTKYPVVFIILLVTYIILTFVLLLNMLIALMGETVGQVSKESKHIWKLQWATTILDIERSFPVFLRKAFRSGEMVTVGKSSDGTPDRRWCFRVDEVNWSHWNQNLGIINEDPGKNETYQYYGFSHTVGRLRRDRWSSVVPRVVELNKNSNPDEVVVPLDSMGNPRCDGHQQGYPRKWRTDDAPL
In words: Calcium imaging of TRPV4-mediated [Ca2+]i in human PSCs. It counts as cell-based. As for the experimental part: as §3, with “temperature.” for “temperature. The supernate was removed, and isolated stellate cells were plated on a thin-layered Matrigel-coated glass bottom culture plate (MatTek, P35G-0-14-C). Before plating the cells, Matrigel solution (Corning, catalog 354234) at a ratio of 1.5:100 DMEM/F12 (Thermo Fisher Scientific, catalog 11330-032) was poured onto the culture plate and incubated for 2 hr at 37° C. to form a thin layer of Matrigel coating. Matrigel mixture was removed, and the plate was washed with PBS before cells were plated. Cell culture media, DMEM/F12 with 5% FBS was used for mouse stellate cells. Fresh, human pancreatic tissue was digested with collagenase as described above with modifications.”

The subject of assay [4] is pancreatic acini. As to the kind of experiment: CCK-induced [Ca2+]i in pancreatic acini. The format is cell-based, mouse. The note with it: HC067 1 μM; CCK 1 nM. As for the experimental part: as §1, §2
Assay [5] deals with KPCY cells. As to the kind of experiment: Orthotopic KPCY cell PDAC model with TRPV4 blocker via osmotic minipump. The format is in vivo, mouse. The note with it: GSK2193874 20 mg/mL, 100 μL in subcutaneous osmotic minipump, 20 days; preliminary. Here is the method: In this experimental model, KPCY cells (100,000 cells in 25 μL phosphate buffer saline pH 7, containing 1% Matrigel) are injected into the tail region of the pancreas with and without a TRPV4 blocker to investigate if a TRPV4 inhibitor can inhibit PDAC growth and stop cancer cell metastasis. For accurate and continuous dosing, the TRPV4 blocker is placed in an infusion osmotic minipump (ALZET) implanted subcutaneously. Mice are observed for 20 days. On day 20, liver and pancreas tissue are processed for microscopic imaging and quantification of mRNA levels. Serum samples are collected for analysis and quantification of pro-metastatic factors.
Tumor growth and serum SAA were measured 20 days after transplantation of KPCY cells into the pancreas, as described in FIG. 33. Mice were treated with GSK2193874 (20 mg/mL) dissolved in 6% cavitron saline buffer and 100 μL drug solution was loaded in an osmotic minipump implanted subcutaneously for 20 days.
KPCY cells resuspended in PBS+1% matrigel after trypsinization. Either 10,000 or 100,000 cells in 20 μl PBS were injected into the pancreatic tail. […]
Orthotopic injection of KPCY cells with implantation of micro-osmotic pump (Alzet, 1004) filled with either vehicle (6% cavitron W7 HP7 in water—Ashland) or GSK2193874 at 20 mg/mL. Mice were euthanized 20 days later, and organs were measured and harvested. […]

T1 sequence (Q9EPK8 whole entry): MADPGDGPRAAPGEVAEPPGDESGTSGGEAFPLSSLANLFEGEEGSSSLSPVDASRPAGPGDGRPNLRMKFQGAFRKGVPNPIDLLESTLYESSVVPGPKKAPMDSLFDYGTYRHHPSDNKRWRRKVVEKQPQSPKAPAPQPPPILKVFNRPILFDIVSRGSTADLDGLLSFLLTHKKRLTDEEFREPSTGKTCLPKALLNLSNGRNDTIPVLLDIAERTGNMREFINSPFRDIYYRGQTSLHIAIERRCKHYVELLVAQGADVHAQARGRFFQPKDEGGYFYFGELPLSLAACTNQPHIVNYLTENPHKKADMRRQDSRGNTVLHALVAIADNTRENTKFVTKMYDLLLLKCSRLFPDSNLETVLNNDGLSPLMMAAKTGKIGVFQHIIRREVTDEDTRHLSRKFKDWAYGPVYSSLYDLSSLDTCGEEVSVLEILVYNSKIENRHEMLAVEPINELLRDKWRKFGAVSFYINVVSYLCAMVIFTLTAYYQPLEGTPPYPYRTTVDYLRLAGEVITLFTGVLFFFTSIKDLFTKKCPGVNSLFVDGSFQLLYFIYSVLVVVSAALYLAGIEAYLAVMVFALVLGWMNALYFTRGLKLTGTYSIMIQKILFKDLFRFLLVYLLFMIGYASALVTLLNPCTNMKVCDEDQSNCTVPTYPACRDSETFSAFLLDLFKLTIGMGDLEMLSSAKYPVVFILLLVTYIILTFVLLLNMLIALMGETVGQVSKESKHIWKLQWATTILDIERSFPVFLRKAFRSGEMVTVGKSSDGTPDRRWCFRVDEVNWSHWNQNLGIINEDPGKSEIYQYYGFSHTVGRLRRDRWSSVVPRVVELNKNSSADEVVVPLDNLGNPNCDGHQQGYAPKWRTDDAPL

With `CC(C)C[C@H](NC(=O)c1cc2ccccc2s1)C(=O)N1CCN(C(=O)[C@H](CO)NS(=O)(=O)c2ccc(Cl)cc2Cl)CC1` [GSK101], the “agonist effect on [Ca2+]i” value in assay [1] (GSK101 50 nM, arachidonic acid 20 μM, 5′,6′-EET 5 μM) is “induced a significant increase in [Ca^2+]i”; in assay [2] (GSK101 100 nM, quiescent mouse PSCs), “produced a sustained elevation in [Ca^2+]i”; in assay [3] (GSK101 100 nM, quiescent human PSCs), “produced a sustained elevation in [Ca^2+]i”.
Consider `Cc1c(C(=O)Nc2cccc(C(F)(F)F)c2)cc(-c2ccccc2)n1CCCN1CCOCC1` [HC067], for which the “effect on AA- and 5′,6′-EET-induced [Ca2+]i increases” value in assay [1] (HC067 100 nM) is reported as “inhibited”. Further, in assay [1] (HC067 100 nM, RN1734 30 μM), the “effect on GSK101 (50 nM)-induced [Ca2+]i increase” value is listed as “inhibited”. For the same compound, the “effect on shear stress-induced sustained [Ca2+]i elevation” value in assay [1] (HC067 1 μM, 12 dyne/cm^2 for 30 seconds) is “blocked the sustained [Ca^2+]i elevation, leaving only transient alterations in [Ca^2+]i”. The “effect on Yoda1-stimulated sustained [Ca2+]i increase” value in assay [1] (HC067 1 μM, Yoda1 25 μM) was “completely blocked the Yoda1-stimulated (25 μM) sustained increase in [Ca^2+]i”. Also, the “effect on GSK1016790A-induced sustained [Ca2+]i elevation” value in assay [2] (HC067 1 μM, mouse PSCs) was “blocked”; in assay [3] (HC067 1 μM, human PSCs), “blocked”. Besides, in assay [4], the “effect on CCK-stimulated peak or sustained [Ca2+]i” value was “did not affect the CCK-stimulated (1 nM) peak or sustained [Ca^2+]i changes”.
With `O=C(NC1(c2ccccc2)CC1)c1c(CN2CCC(N3CCCCC3)CC2)c(-c2cccc(C(F)(F)F)c2)nc2cc(Br)ccc12` [GSK2193874], in assay [5], the “pancreatic cancer (PDAC) growth” value is reported as “inhibited pancreatic cancer growth” and the “serum SAA levels” value is on record as “reduced serum SAA levels”.
